Where two headings read alike, the source gives them in different places.
Legend:
Type in all cases: cell-based
[1] = test system: HL-60 (MLL-WT) cells; assay: Cell proliferation (alamarBlue) HL-60; details: Homo sapiens, read-out: IC50 proliferation
Description: (§1) Cells were seeded in the optimal growth medium at 4000–5000 cells/well in a 96 MTP and cultured 18–24 h before inhibitor treatment.

[2] = test system: Jurkat (MLL-WT) cells; assay: Cell proliferation (alamarBlue) Jurkat; details: Homo sapiens
Description: as §1

[3] = test system: OCI-AML-5 (MLL-WT) cells; assay: Cell proliferation (alamarBlue) OCI-AML-5; details: Homo sapiens
Description: as §1

[4] = test system: OCI-AML-3 (MLL-WT) cells; assay: Cell proliferation (alamarBlue) OCI-AML-3; details: Homo sapiens
Description: as §1

[5] = test system: MV4-11 (MLL-AF4) cells; assay: Cell proliferation (alamarBlue) MV4-11; details: Homo sapiens
Description: as §1

[6] = test system: RS4;11 (MLL-AF4) cells; assay: Cell proliferation (alamarBlue) RS4;11; details: Homo sapiens, RS4-11, read-out: IC50 proliferation, RS4;11 (MLL-AF4)
Description: as §1

[7] = test system: SEM (MLL-AF4) cells; assay: Cell proliferation (alamarBlue) SEM
Description: as §1

[8] = test system: ML-2 (MLL-AF6) cells; assay: Cell proliferation (alamarBlue) ML-2
Description: as §1

[9] = test system: MOLM-13 (MLL-AF9) cells; assay: Cell proliferation (alamarBlue) MOLM-13; details: Homo sapiens
Description: as §1

[10] = test system: MOLM-14 (MLL-AF9) cells; assay: Cell proliferation (alamarBlue) MOLM-14; details: Homo sapiens
Description: as §1

[11] = test system: NOMO-1 (MLL-AF9) cells; assay: Cell proliferation (alamarBlue) NOMO-1; details: Homo sapiens
Description: as §1

[12] = test system: OCI-AML-2 (MLL-AF9) cells; assay: Cell proliferation (alamarBlue) OCI-AML-2; details: Homo sapiens
Description: as §1

[13] = test system: KOPN-8 (MLL-ENL) cells; assay: Cell proliferation (alamarBlue) KOPN-8; details: Homo sapiens
Description: as §1

[14] = test system: EOL-1 (MLL-TD) cells; assay: Cell proliferation (alamarBlue) EOL-1; details: Homo sapiens
Description: as §1

[15] = test system: MV4-11, MOLM-13 and HL-60 cells; assay: Cell proliferation, all three tested AML cell lines; details: 96 h, read-out: anti-proliferation IC50s
Description: Cells were seeded in the optimal growth medium at 4000–5000 cells/well in a 96 MTP and cultured 18–24 h before inhibitor treatment. Upon treatment with the indicated inhibitor, cells were cultured for 24 h, 96 h, and 168 h and effects on proliferation were determined using alamarBlue Cell Viability Reagent (Thermo Fisher Scientific, Waltham, MA, USA).

[16] = test system: MLL-fused cell lines (MV4-11, MOLM-13); assay: CD11b protein expression by flow cytometry, MLL-fused lines; details: 4 and 7 days of treatment
Description: (§2) Four thousand cells per well were seeded 24 h before they were treated with the indicated inhibitor in a 96 MTP. After 4 or 7 days of treatment, cells were washed with PBS and stained with CD11b - APC (BioLegend, San Diego, California, USA) and DAPI (Thermo Fisher Scientific, Waltham, Massachusetts, USA) or AnnexinV – FITC (BioLegend, San Diego, California, USA) and PI solution (Sigma-Aldrich St. Louis, Missouri, USA) using the FACS Canto II (BD Biosciences, Heidelberg, Germany) and data was analyzed with FACSDiva software.

[17] = test system: HL-60 cells; assay: CD11b protein expression by flow cytometry, HL-60; details: non-fused HL-60 cell line, 4 and 7 days of treatment
Description: as §2

[18] = test system: MV4-11, MOLM-13 and HL-60 cells; assay: Cell cycle analysis (PI, flow cytometry); details: 4 days of treatment (Figure S2)
Description: Cells were washed with PBS and fixed overnight at − 20 °C with 70% ethanol. Fixed cells were stained with PI solution (Sigma-Aldrich St. Louis, MO, USA) solution containing RNase A (Qiagen, Hilden, Germany). Fluorescence was measured with FACS Canto II (BD Biosciences, Heidelberg, Germany) flow cytometer and data was analyzed with FACSDiva software.

In the case of Cc1c(-c2ccc(-c3ccccc3F)cc2)nc2ccc(F)cc2c1C(=O)O [Brequinar], the IC50 ([1]; HL-60, 24 h) is reported as > 10000 nM, the IC50 ([1]; HL-60, 96 h) is reported as 800 nM and the IC50 ([1]; HL-60, 168 h) is reported as 270 nM. The IC50 ([2]; read-out: IC50 proliferation, Jurkat (MLL-WT), D1) was > 10000 nM, the IC50 ([2]; read-out: IC50 proliferation, Jurkat (MLL-WT), D4) was 30 nM and the IC50 ([2]; read-out: IC50 proliferation, Jurkat (MLL-WT), D7) was 50 nM. For the same compound, the IC50 ([3]; OCI-AML-5, read-out: IC50 proliferation, OCI-AML-5 (MLL-WT), D1) was > 10000 nM, the IC50 ([3]; OCI-AML-5, read-out: IC50 proliferation, OCI-AML-5 (MLL-WT), D4) was > 10000 nM and the IC50 ([3]; OCI-AML-5, read-out: IC50 proliferation, OCI-AML-5 (MLL-WT), D7) was > 10000 nM. For the same compound, the IC50 ([4]; OCI-AML-3, read-out: IC50 proliferation, OCI-AML-3 (MLL-WT), D1) was > 10000 nM, the IC50 ([4]; OCI-AML-3, read-out: IC50 proliferation, OCI-AML-3 (MLL-WT), D4) was 200 nM and the IC50 ([4]; OCI-AML-3, read-out: IC50 proliferation, OCI-AML-3 (MLL-WT), D7) was 240 nM. The IC50 ([5]; MV4-11, read-out: IC50 proliferation, MV4-11 (MLL-AF4), D1) was > 10000 nM, the IC50 ([5]; MV4-11, read-out: IC50 proliferation, MV4-11 (MLL-AF4), D4) was 100 nM and the IC50 ([5]; MV4-11, read-out: IC50 proliferation, MV4-11 (MLL-AF4), D7) was 220 nM. The IC50 ([6]; D1) was > 10000 nM, the IC50 ([6]; D4) was 1100 nM and the IC50 ([6]; D7) was > 10000 nM. The IC50 ([7]; read-out: IC50 proliferation, SEM (MLL-AF4), D1) was > 10000 nM, the IC50 ([7]; read-out: IC50 proliferation, SEM (MLL-AF4), D4) was 190 nM and the IC50 ([7]; read-out: IC50 proliferation, SEM (MLL-AF4), D7) was 250 nM. For the same compound, the IC50 ([8]; read-out: IC50 proliferation, ML-2 (MLL-AF6), D1) was > 10000 nM, the IC50 ([8]; read-out: IC50 proliferation, ML-2 (MLL-AF6), D4) was 500 nM and the IC50 ([8]; read-out: IC50 proliferation, ML-2 (MLL-AF6), D7) was 310 nM. The IC50 ([9]; MOLM-13, read-out: IC50 proliferation, MOLM-13 (MLL-AF9), D1) was > 10000 nM, the IC50 ([9]; MOLM-13, read-out: IC50 proliferation, MOLM-13 (MLL-AF9), D4) was 110 nM and the IC50 ([9]; MOLM-13, read-out: IC50 proliferation, MOLM-13 (MLL-AF9), D7) was 220 nM. The IC50 ([10]; MOLM-14, read-out: IC50 proliferation, MOLM-14 (MLL-AF9), D1) was > 10000 nM, the IC50 ([10]; MOLM-14, read-out: IC50 proliferation, MOLM-14 (MLL-AF9), D4) was 320 nM and the IC50 ([10]; MOLM-14, read-out: IC50 proliferation, MOLM-14 (MLL-AF9), D7) was 180 nM. The IC50 ([11]; NOMO-1, read-out: IC50 proliferation, NOMO-1 (MLL-AF9), D1) was > 10000 nM, the IC50 ([11]; NOMO-1, read-out: IC50 proliferation, NOMO-1 (MLL-AF9), D4) was 270 nM and the IC50 ([11]; NOMO-1, read-out: IC50 proliferation, NOMO-1 (MLL-AF9), D7) was 130 nM. The IC50 ([12]; OCI-AML2, read-out: IC50 proliferation, OCI-AML-2 (MLL-AF9), D1) was > 10000 nM, the IC50 ([12]; OCI-AML2, read-out: IC50 proliferation, OCI-AML-2 (MLL-AF9), D4) was > 10000 nM and the IC50 ([12]; OCI-AML2, read-out: IC50 proliferation, OCI-AML-2 (MLL-AF9), D7) was > 10000 nM. For the same compound, the IC50 ([13]; KOPN-8, read-out: IC50 proliferation, KOPN-8 (MLL-ENL), D1) was > 10000 nM, the IC50 ([13]; KOPN-8, read-out: IC50 proliferation, KOPN-8 (MLL-ENL), D4) was 300 nM and the IC50 ([13]; KOPN-8, read-out: IC50 proliferation, KOPN-8 (MLL-ENL), D7) was 360 nM. The IC50 ([14]; EOL1, read-out: IC50 proliferation, EOL-1 (MLL-TD), D1) was > 10000 nM, the IC50 ([14]; EOL1, read-out: IC50 proliferation, EOL-1 (MLL-TD), D4) was 380 nM and the IC50 ([14]; EOL1, read-out: IC50 proliferation, EOL-1 (MLL-TD), D7) was 110 nM. The IC50 [15] was 30 to 140 nM, the “CD11b protein level” value [16] was “increased CD11b protein level in a dose and time-dependent manner” and the “CD11b level” value [17] was “treatment did”. The “cell cycle effect” value [18] was “slight S-phase arrest at lower concentrations”.
